Data reported in patent publication US10961253B2, “Positive allosteric modulators of the muscarinic acetylcholine receptor M4” (Vanderbilt University, priority 2016, dated 2021).

Key:
[1] = biological target: T1, Human M4 (Homo sapiens, UniProt P08173); assay: mAChR M4 cell-based functional assay (calcium flux, potentiation of EC20 acetylcholine response); design: Emax: dose or concentration left out as unconfirmed; conditions: for Emax: CHO-K1
T1 sequence (P08173 1-479): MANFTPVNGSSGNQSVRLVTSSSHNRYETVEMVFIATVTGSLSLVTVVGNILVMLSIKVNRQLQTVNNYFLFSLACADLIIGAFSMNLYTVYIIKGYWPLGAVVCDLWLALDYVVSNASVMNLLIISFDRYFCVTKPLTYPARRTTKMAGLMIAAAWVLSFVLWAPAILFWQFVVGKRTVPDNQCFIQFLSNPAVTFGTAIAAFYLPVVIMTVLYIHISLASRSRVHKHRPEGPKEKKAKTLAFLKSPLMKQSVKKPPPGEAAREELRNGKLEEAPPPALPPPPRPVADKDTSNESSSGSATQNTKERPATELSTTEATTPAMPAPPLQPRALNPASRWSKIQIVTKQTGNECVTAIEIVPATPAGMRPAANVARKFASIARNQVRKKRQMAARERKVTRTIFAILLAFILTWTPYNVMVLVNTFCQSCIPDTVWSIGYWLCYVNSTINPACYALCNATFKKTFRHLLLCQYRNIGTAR

[2] = Alzheimer's disease patients; delusions, suspiciousness, vocal outbursts, hallucinations; cited from earlier work
[3] = similar profiles to known antipsychotic drugs, without causing catalepsy; cited from earlier work
[4] = human, in vivo; cited from earlier work

EC50 [1] [nM]	Emax [1] [%]	Structure (SMILES)	effect on psychotic behavioral symptoms [2]	activity in animal models [3]	elevated liver transaminases (hepatotoxicity), share of patients [4]
3900	61.5	Cc1cc(C)c2c(n1)sc1c(C3CC3)ncnc12 [Compound 5, 4-cyclopropyl-7,9-dimethylpyrido[3′,2′:4,5]thieno[3,2-d]pyrimidine]	–	–	–
–	74.6	Cc1nnc2sc3c(C4CCOCC4)ncnc3c2c1C [Compound 18, 3,4-dimethyl-8-(tetrahydro-2H-pyran-4-yl)pyrimido[4′,5′:4,5]thieno[2,3-c]pyridazine]	–	–	–
6800	70.8	Cc1cc(C)c2c(n1)sc1c(C3CCCCC3)ncnc12 [Compound 9, 4-cyclohexyl-7,9-dimethylpyrido[3′,2′:4,5]thieno[3,2-d]pyrimidine]	–	–	–
150	98.8	Cc1cc(C)c2c(n1)sc1c(C3CCOCC3)ncnc12 [Compound 1, 7,9-Dimethyl-4-(tetrahydro-2H-pyran-4-yl)pyrido[3′,2′:4,5]thieno[3,2-d]pyrimidine]	–	–	–
1600	41.8	Cc1cc(C)c2c(n1)sc1c(C3CCN(C4COC4)CC3)ncnc12 [Compound 21, 7,9-dimethyl-4-(1-(oxetan-3-yl)piperidin-4-yl)pyrido[3′,2′:4,5]thieno[3,2-d]pyrimidine]	–	–	–
490	39.1	Cc1nnc2sc3c(C4CCN(C(=O)C5(F)CC5)CC4)ncnc3c2c1C [Compound 20, (4-(3,4-dimethylpyrimido[4′,5′:4,5]thieno[2,3-c]pyridazin-8-yl)piperidin-1-yl)(1-fluorocyclopropyl)methanone]	–	–	–
230	63	Cc1cc(C)c2c(n1)sc1c(C3CCN(C(=O)C4(C)CC4)CC3)ncnc12 [Compound 13, (4-(7,9-dimethylpyrido[3′,2′:4,5]thieno[3,2-d]pyrimidin-4-yl)piperidin-1-yl)(1-methylcyclopropyl)methanone]	–	–	–
480	65.6	Cc1cc(C)c2c(n1)sc1c(C3CCN(C=O)CC3)ncnc12 [Compound 7, 4-(7,9-dimethylpyrido[3′,2′:4,5]thieno[3,2-d]pyrimidin-4-yl)piperidine-1-carbaldehyde]	–	–	–
–	–	CCCCCCOc1nsnc1C1=CCCN(C)C1 [xanomeline]	reduce psychotic behavioral symptoms	active in animal models	–
510	67	Cc1nnc2sc3c(C4CCCN(C=O)C4)ncnc3c2c1C (stereo not shown) [Compound 23, 3-(3,4-dimethylpyrimido[4′,5′:4,5]thieno[2,3-c]pyridazin-8-yl)piperidine-1-carbaldehyde]	–	–	–
520	72.3	Cc1cc(C)c2c(n1)sc1c(C3CCN(C(=O)C4CCC4)CC3)ncnc12 [Compound 14, cyclobutyl(4-(7,9-dimethylpyrido[3′,2′:4,5]thieno[3,2-d]pyrimidin-4-yl)piperidin-1-yl)methanone]	–	–	–
45	96.3	Cc1nnc2sc3c(C4CCC(F)(F)CC4)ncnc3c2c1C [Compound 25, 8-(4,4-difluorocyclohexyl)-3,4-dimethylpyrimido[4′,5′:4,5]thieno[2,3-c]pyridazine]	–	–	–
620	43.5	Cc1cc(C)c2c(n1)sc1c(C3CCN(C(=O)C4CC4)CC3)ncnc12 [Compound 11, cyclopropyl(4-(7,9-dimethylpyrido[3′,2′:4,5]thieno[3,2-d]pyrimidin-4-yl)piperidin-1-yl)methanone]	–	–	–
> 10000	70.9	Cc1cc(C)c2c(n1)sc1c(C3CCCC3)ncnc12 [Compound 8, 4-cyclopentyl-7,9-dimethylpyrido[3′,2′:4,5]thieno[3,2-d]pyrimidine]	–	–	–
140	73.5	Cc1nnc2sc3c(C4CC4)ncnc3c2c1C [Compound 17, 8-cyclopropyl-3,4-dimethylpyrimido[4′,5′:4,5]thieno[2,3-c]pyridazine]	–	–	–
1900	58.2	Cc1nnc2sc3c(C4CCN(C(=O)C5CCCO5)CC4)ncnc3c2c1C (stereo not shown) [Compound 27, (4-(3,4-dimethylpyrimido[4′,5′:4,5]thieno[2,3-c]pyridazin-8-yl)piperidin-1-yl)(tetrahydrofuran-2-yl)methanone]	–	–	–
820	62	Cc1cc(C)c2c(n1)sc1c(C3CCN(C(=O)C4(F)CC4)CC3)ncnc12 [Compound 12, (4-(7,9-dimethylpyrido[3′,2′:4,5]thieno[3,2-d]pyrimidin-4-yl)piperidin-1-yl)(1-fluorocyclopropyl)methanone]	–	–	–
2900	59.1	CCc1ncnc2c1sc1nc(C)cc(C)c12 [Compound 6, 4-ethyl-7,9-dimethylpyrido[3′,2′:4,5]thieno[3,2-d]pyrimidine]	–	–	–
–	–	Nc1c2c(nc3ccccc13)CCCC2 [tacrine]	–	–	about 30%
–	72.1	Cc1nnc2sc3c(C4CC(F)(F)C4)ncnc3c2c1C [Compound 22, 8-(3,3-difluorocyclobutyl)-3,4-dimethylpyrimido[4′,5′:4,5]thieno[2,3-c]pyridazine]	–	–	–
> 10000	55.3	C/C=C/c1ncnc2c1sc1nc(C)cc(C)c12 [Compound 2, (E)-7,9-dimethyl-4-(prop-1-en-1-yl)pyrido[3′,2′:4,5]thieno[3,2-d]pyrimidine; 2,2,2-trifluoroacetic acid]	–	–	–
280	59.8	Cc1nnc2sc3c(CCC4CCCCO4)ncnc3c2c1C (stereo not shown) [Compound 24, 3,4-dimethyl-8-(2-(tetrahydro-2H-pyran-2-yl)ethyl)pyrimido[4′,5′:4,5]thieno[2,3-c]pyridazine]	–	–	–
1000	44	Cc1cc(C)c2c(n1)sc1c(C3CCN(C(=O)C4CCCO4)CC3)ncnc12 (stereo not shown) [Compound 15, (4-(7,9-dimethylpyrido[3′,2′:4,5]thieno[3,2-d]pyrimidin-4-yl)piperidin-1-yl)(tetrahydrofuran-2-yl)methanone]	–	–	–
2800	58.1	Cc1cc(C)c2c(n1)sc1c(C)ncnc12 [Compound 4, 4,7,9-trimethylpyrido[3′,2′:4,5]thieno[3,2-d]pyrimidine]	–	–	–
6100	98.8	Cc1cc(C)c2c(n1)sc1c(C3CCNCC3)ncnc12 [Compound 10, 7,9-dimethyl-4-(piperidin-4-yl)pyrido[3′,2′:4,5]thieno[3,2-d]pyrimidine]	–	–	–
540	93.4	CCCCc1ncnc2c1sc1nnc(C)c(C)c12 [Compound 29, 8-butyl-3,4-dimethylpyrimido[4′,5′:4,5]thieno[2,3-c]pyridazine]	–	–	–
–	75.6	Cc1nnc2sc3c(CC(C)(C)C)ncnc3c2c1C [Compound 28, 3,4-dimethyl-8-neopentylpyrimido[4′,5′:4,5]thieno[2,3-c]pyridazine]	–	–	–

Structure (SMILES)	EC50 [1] [nM]	Emax [1] [%]	effect on psychotic behavioral symptoms [2]	activity in animal models [3]	elevated liver transaminases (hepatotoxicity), share of patients [4]
Cc1nnc2sc3c(C4CCCCC4)ncnc3c2c1C [Compound 16, 8-cyclohexyl-3,4-dimethylpyrimido[4′,5′:4,5]thieno[2,3-c]pyridazine]	52	72.6	–	–	–
Cc1nnc2sc3c(C4CCNCC4)ncnc3c2c1C [Compound 19, 3,4-dimethyl-8-(piperidin-4-yl)pyrimido[4′,5′:4,5]thieno[2,3-c]pyridazine]	4300	33.8	–	–	–
Cc1cc(C)c2c(n1)sc1c(-c3nccs3)ncnc12 [Compound 3, 7,9-dimethyl-4-(thiazol-2-yl)pyrido[3′,2′:4,5]thieno[3,2-d]pyrimidine; 2,2,2-trifluoroacetic acid]	3400	62.2	–	–	–
Cc1nnc2sc3c(C4CCN(C(=O)C5CC5)CC4)ncnc3c2c1C [Compound 26, cyclopropyl(4-(3,4-dimethylpyrimido[4′,5′:4,5]thieno[2,3-c]pyridazin-8-yl)piperidin-1-yl)methanone]	410	36.5	–	–	–
